The record followed here is patent US10293004B2, “Butyrate-producing bacterium and use thereof” (KABUSHIKI KAISHA YAKULT HONSHA, priority 2014, dated 2019).

For test [1], the system named is mouse C57BL/6J. Briefly: Multiple oral dose test of YIT 12355 to mouse given indigestible saccharide. The format is in vivo. Conditions: for Total cell count: DAPI counting method; for Cell count, A. hadrus: quantitative PCR, multiple oral dose; for Occupancy: cell count of YIT 12355/total cell count ×100; for Detected count: mice with A. hadrus detected / mice in group. The method, then:
Mice were acclimatized and raised with F2 feed (manufactured by Funabashi Farm Co., Ltd.) for 1 week and then divided into 6 groups such that the average body weight was almost equal among these groups. Then, a control diet (Table 7) was administered thereto for 1 week and replaced with purified feed containing an indigestible material, which was then administered thereto for 2 weeks. A live cell suspension of YIT 12355 was orally administered twice a week a total of 4 times using a probe. At the final day of the test, each mouse was dissected, and the cecal and colonic contents were recovered and examined for an organic acid concentration. Also, the cell count of YIT 12355 in the intestinal tract contents was measured by quantitative PCR, while change in the whole intestinal flora was examined by use of PCR-DGGE (denaturing gradient gel electrophoresis). • Animal used: mouse C57BL/6J (4 weeks old; CLEA Japan, Inc.) • Test period: 3 weeks • Indigestible saccharide used: lactitol and maltitol • Dose of indigestible saccharide: 5% (w/w) • Administered bacterial strain: YIT 12355 • Dose of bacterium: live cell dose: 3.9 to 6.9×10^8 cfu/mouse (administration of a suspension in physiological saline using a probe). Total cell count including dead cells: […] cfu/mouse • Group configuration: 6 groups (5 mice/group) At the 2nd week of administration of the test feed, each mouse was anesthetized with diethyl ether and euthanized by cervical dislocation. After abdominal section, cecal tissues and colonic tissues were excised to recover their contents. The cecal and colonic contents were diluted 10-fold with PBS and subjected to DNA extraction. DNA was extracted by the bead-phenol method from the 10-fold diluted solution of the intestinal tract contents. Specifically, 0.3 g of glass beads (diameter: 0.1 mm), 300 μL of a Tris-SDS solution (a mixed solution of 250 mL of 200 mM Tris-HCl, 80 mM EDTA, pH 9.0, and 50 mL of 10% SDS) and 500 μL of TE saturated phenol were added to 200 μL of the diluted solution of the intestinal tract contents, and the mixture was vigorously shaken for 30 seconds using FASTPREP FP120 cell disruptive equipment (power level: 5.0). After centrifugation at 15,000 rpm for 5 minutes, 400 μL of a phenol/chloroform/isoamyl alcohol (25:24:1) solution was added to 400 μL of the supernatant, and the mixture was shaken for 45 seconds using FASTPREP FP120 cell disruptive equipment (power level: 4.0). After centrifugation at 15,000 rpm for 5 minutes, 25 μL of 3 M sodium acetate (pH 5.4) and 250 μL of isopropanol were added to 250 μL of the supernatant and mixed therewith. After centrifugation at 15,000 rpm for 5 minutes, the supernatant was removed, and 500 μL of 70% ethanol was added thereto, followed by centrifugation again at 15,000 rpm for 5 minutes. The supernatant was removed, and the pellets were dried and dissolved in 1.0 mL of a TE buffer. The obtained DNA solution was diluted 10-fold with purified water to prepare a template DNA solution. For quantitative PCR, 7500 Real-Time PCR System (manufactured by Life Technologies Corp.) was used. The total volume of the reaction solution was set to 20 μL, and SYBR Premix Ex Taq II (Takara Bio Inc.) containing 1.0 μM each of primers, and the template DNA solution were mixed and then subjected to quantitative PCR. The reaction conditions involved heating at 95° C. for 2 minutes, followed by 40 repetitive cycles each involving reactions at 95° C. for 20 seconds, 55° C. for 20 seconds and 72° C. for 50 seconds, and subsequent reaction at 72° C. for 3 minutes. For subsequent Tm value analysis, after reaction at 60° C. for 1 minute, the temperature was elevated at a temperature gradient of 0.2° C./sec to 95° C. during which the fluorescence of SYBR Green I was measured to measure the dissociation temperature (Tm) of the double strand of the amplification product. […]

Test [2] concerns mouse C57BL/6J. Briefly: Single oral dose test of YIT 12355 to mouse given indigestible saccharide. The format is in vivo. The conditions noted are these: cecum, single oral dose. The method, then:
Mice were acclimatized and raised with F2 feed for 1 week and then divided into 4 groups such that the average body weight was almost equal among these groups. A control diet (Table 12) was administered thereto for 1 week. Then, the control diet was administered to the control group (−/− group) and the AH/− group for 2 weeks while purified feed containing maltitol (MAL-containing diet) was administered to the −/MAL group and the AH/MAL group for 2 weeks. A live cell suspension of YIT 12355 was administered at a single dose using a probe after the administration of the control diet for 1 week. At the final day of the test, each mouse was dissected, and the cecal contents were recovered. The cecal contents were subjected to the cell count measurement of YIT 12355. • Test material: Maltitol (5% mixed feed administration) • Administered bacterial strain: YIT 12355 • Animal species: Mouse C57BL/6J (4 weeks old; CLEA Japan, Inc.) • Group configuration: 7 mice×4 groups The bacterial solution (viable count: 3.1×10^9 cfu/mL, total cell count: 1.9×10^10 cells/mL) prepared in the preceding paragraph 2) was orally administered at a single dose of 0.2 mL (viable count: 6.2×10^8 cfu/mouse, total cell count: 3.8×10^9 cells/mouse) to each mouse using a probe. To the control group and the −/MAL group, 0.2 mL of physiological saline was administered instead of the bacterial solution. […] Then, the cecal contents were recovered. The cecal contents were diluted 10-fold with PBS and subjected to DNA extraction. DNA was extracted by the bead-phenol method described in the paragraph 4)a) of Example 5 from the 10-fold diluted solution of the intestinal tract contents. The cell count of YIT 12355 was measured by quantitative PCR using the obtained DNA as a template and the bacterial species-specific primers described in the paragraph 4)a) of Example 5. After fixation of a portion of the 10-fold diluted solution of the intestinal tract contents in a 4% solution of paraformaldehyde in PBS, the total cell count was measured by the DAPI counting method. The cell count of YIT 12355 was divided by the total cell count to calculate an occupancy (%). (Occupancy of YIT 12355) (%)=(Cell count of YIT 12355/Total cell count)×100 (Expression 5)

A short description of test [3]: Production of butyrate by each bacterial strain from L-sorbose and D-xylitol (ion-exclusion HPLC). Conditions: 24 hours, minus PYA blank. The method, then:
(§1) A frozen stock solution of each bacterial strain (a 10% (w/v) skim milk-2% sodium glutamate solution in which bacterial cells were suspended) (cell count: 2.0 to 5.5×10^10 cells/mL) was thawed, and the solution was inoculated at 1% to 4 mL of a PY liquid medium supplemented with 33 mM sodium acetate and 0.5 (w/v) % glucose (PYGA medium), followed by anaerobic culture at 37° C. for 24 hours. After the culture, the culture solution was inoculated at 1% to a fresh PYGA medium, followed by anaerobic culture at 37° C. for 24 hours. After the culture, the turbidity (OD660) of the culture solution was measured. Then, the culture solution was inoculated at 1% to a PY medium containing 0.5 (w/v) % L-sorbose or D-xylitol and 33 mM sodium acetate (the medium containing L-sorbose: PYSA, and the medium containing D-xylitol: PYXA), followed by anaerobic culture at 37° C. for 24 hours. Then, the turbidity (OD660) was measured.
After the completion of the culture, the organic acid concentration in the culture solution was quantified by ion-exclusion HPLC. In this operation, a culture solution in a PY medium supplemented with sodium acetate but without L-sorbose or D-xylitol (PYA medium) was used as a blank.
(HPLC Analysis Conditions) • Eluent: 15 mM perchloric acid-7% acetonitrile • pH adjuster: 15 mM perchloric acid-60 mM • tris(hydroxymethyl)aminomethane-7% acetonitrile • Separation column: Organic acid analysis column RSpak KC- • 811×2 (manufactured by Showa Denko K.K.) • Column temperature: 42° C. • Injected sample volume: 10 μL • Flow rate: 1.0 mL/min • Analysis time: 35 min • Detector: Waters 432 electric conductivity detector • Cell temperature: 45° C.
The amount of butyrate produced was calculated according to (Expression 1). Amount of butyrate produced=(Amount of butyrate produced by culture for 24 hours in a PYSA or PYXA medium)−(Amount of butyrate produced by culture for 24 hours in a PYA medium) (Expression 1)

The nature of test [4]: Turbidity (OD660) after anaerobic culture of bacterial strains in PYGA, PYSA or PYXA medium. The method, then:
as §1

Test [5] is described as follows: Biochemical properties: saccharide fermentability (API-ZYM, Rapid ID32A API, API KENKI 20A). The arrangement: key: +: positive reaction; −: negative reaction; +^w: weak reaction. The source says: (§2) Commercially available API-ZYM, Rapid ID32A API, and API KENKI 20A (SYSMEX bioMerieux Co., Ltd.) were used in the testing of biochemical properties of various bacterial strains. The testing method followed the product manuals.

The nature of test [6]: Biochemical properties: enzymatic activity (API-ZYM, Rapid ID32A API, API KENKI 20A). Further details: key: +: positive reaction; −: negative reaction; +^w: weak reaction.
Description: as §2

In the case of `OC[C@@H](O)[C@@H](O[C@H]1O[C@H](CO)[C@@H](O)[C@H](O)[C@H]1O)[C@H](O)[C@@H](O)CO` [—/MAL group, maltitol], in the test with mouse C57BL/6J [1] (Cecal contents), the Total cell count was 11.0 ± 0.1 log10 cells/g contents; the “Cell count, A. hadrus” value turned out to be 6.1 log10 cells/g contents; the Occupancy is given as 0.001%; the Detected count entry was “(1/5)”. In the test on mouse C57BL/6J [1] (Colonic contents), the Total cell count is 11.0 ± 0.1 log10 cells/g contents, the Occupancy worked out at 0.000% and the Detected count entry is “(0/5)”. Besides, the Total cell count in the test with mouse C57BL/6J [2] (DAPI counting method) is listed as 10.9 ± 0.1 log10 (cells/g contents). The “Cell count, A. hadrus YIT 12355” value in the test with mouse C57BL/6J [2] (quantitative PCR) was <6.0 log10 (cells/g contents). Further, the Occupancy with mouse C57BL/6J [2] (ratio to total cell count) was 0.0%.
For the molecule `OC[C@@H](O)[C@@H](O[C@@H]1O[C@H](CO)[C@H](O)[C@H](O)[C@H]1O)[C@H](O)[C@@H](O)CO` [—/LAC group, lactitol], in the test with mouse C57BL/6J [1] (Cecal contents), the Total cell count was found to be 11.1 ± 0.1 log10 cells/g contents; the “Cell count, A. hadrus” value is recorded as 7.2 log10 cells/g contents; the Occupancy is given as 0.014%; the Detected count entry is “(1/5)”. In the test with mouse C57BL/6J [1] (Colonic contents), the Total cell count is given as 11.1 ± 0.1 log10 cells/g contents, the Occupancy came out at 0.000% and the Detected count result was “(0/5)”.
Consider “Anaerostipes hadrus (Eubacterium hadrum) YIT 10092^T (DSM 3319^T) [reference compound]”, for which, in test [3] (D-Xylitol 0.5 (w/v) %, PYXA medium), the “Amount of butyrate produced” value was -0.1 mmol/L. For the same molecule, the “Amount of butyrate produced” value in test [3] (L-Sorbose 0.5 (w/v) %, PYSA medium) was 9.7 mmol/L. Besides, the “Turbidity (OD660)” value in test [4] (after anaerobic culture at 37° C. for 24 hours in PYGA liquid medium) was determined as 2.80. Further, the “Turbidity (OD660)” value in test [4] (anaerobic culture at 37° C. for 24 hours of 1% inoculum in PYSA (L-sorbose)) was 2.56. The “Turbidity (OD660)” value in test [4] (anaerobic culture at 37° C. for 24 hours of 1% inoculum in PYXA (D-xylitol)) is reported as 0.11. Further, in test [5], the Aesculin entry is “−”, the D-Cellobiose result was “+”, the D-Mannitol entry is “+” and the D-Raffinose entry is given as “−”. For the same molecule, in test [5], the D-Xylose entry was “+”, the Glycerol result is recorded as “−”, the L-Arabinose result was “+” and the L-Rhamnose result is recorded as “−”. For the same molecule, in test [5], the L-Sorbitol entry is “+”, the Mallose entry is reported as “+^w” and the Salicin entry is “+”. In test [6], the Acid phosphatase result is “+”, the Alkaline phosphatase entry is “−”, the “Esterase (C4)” value is recorded as “+” and the Naphthol-AS-B1-phosphohydrolase entry is recorded as “+”. For the same molecule, in test [6], the α-Glucosidase result was “−”, the β-Galactosidase result is given as “+” and the β-Galactosidase-6-phosphate entry is given as “+”.
